Laboratory results taken from patent US7579515B2, “Increasing gamete production with a gene switch” (North Carolina State University, priority 2003, dated 2009).

System: transgenic mice carrying FSHβLCR/tet receptor plus tet operator/FSHβ gene
Assay: Ovulation (oocyte count) in FSHβ-switch transgenic female mice fed Dox
Assay type: in vivo
Text: Female mice (7 weeks old) were fed rat chow±Dox (6 gm/kg) and were put with males 6 days after feeding began. Females were checked for copulation plugs am and pm and were euthanized the morning plugs were found; uteri and ovaries were excised from each mouse and oocytes were freed from the ampulla and separated from cumulus cells with hyaluronidase (FIG. 3B). Oocytes were counted (see FIG. 3A). All Dox-fed mice ovulated within 5 days of male exposure except one (19 days) and it produced 90 oocytes. The sheep FSHβLCR was isolated along with its promoter in accordance with standard techniques and operatively associated with a new structural gene, the tet receptor, so that mice carrying this transgene expressed the tet receptor exclusively and strongly in pituitary gonadotropes. Linked to the […] was a second gene unit: the tet operator operatively associated with the structural gene for sheep FSHβ. […] The increase in FSHβ production created more FSH which increased ovulation by 2.4-fold (from an average of 12±0.5 to 29±4). Ovulation of this magnitude is matched only by time-consuming treatments with costly fertility hormones.

## C[C@H]1c2cccc(O)c2C(=O)C2=C(O)[C@]3(O)C(=O)C(C(N)=O)=C(O)[C@@H](N(C)C)[C@@H]3[C@@H](O)[C@@H]21 [doxycycline]
All Dox-fed mice except one (19 days)
  time to ovulation after male exposure: ≤ 5 days
The one Dox-fed mouse that ovulated at 19 days of male exposure, oocytes appeared normal
  oocytes produced by a single mouse: 90
Transgenic female mice, 7 weeks old, rat chow with Dox 6 gm/kg, put with males 6 days after feeding began, without Dox average 12±0.5
  oocytes ovulated, average: 29±4
Transgenic mice, ligand administered vs not administered
  increase in ovulation: 2.4 fold
